Usually EC50 stands for the concentration that produces a half-maximal response.

This is an account of results in patent US12630600B2 (MEDIMMUNE LIMITED, priority 2022, dated 2026).

Test [1] has as its target T1, human GLP-1 receptor (hGLP-1R) (Homo sapiens, UniProt P43220).
T1 construct: expressed in transfected cells; host or cells: CHO
Description: cAMP production (HTRF) in CHO cells expressing human GLP-1 receptor. In kind it is cell-based. To be noted: for EC50: cAMP, geometric mean, read-out: hGLP-1R EC50; for % Relative Potency Ratio: % GLP-1R activity relative to GLP-1 / % GlucR activity relative to glucagon.

Test [2] has as its target T2, human glucagon receptor (hGCGR) (Homo sapiens, UniProt P47871).
T2 construct: expressed in transfected cells; host or cells: CHO
Description: cAMP production (HTRF) in CHO cells expressing human glucagon receptor. In kind it is cell-based. Particulars: read-out: hGluc-R EC50. The protocol: Cells were re-suspended in assay buffer at a batch-dependent optimized concentration (typically hGLP-1R cells at 1×10^5 cells/mL, hGCGR cells at 2×10^5 cells/mL).
Cells were added to the assay plate using a multidrop dispenser and incubated at room temperature for 30 minutes before measuring the cAMP level using a cAMP dynamic 2 homogeneous time resolved Fluorescence (HTRF) kit (Cisbio Bioassays #62AM4PEJ) following the two-step protocol as per manufacturer's recommendations. In brief, anti-cAMP cryptate (donor fluorophore) and cAMP-d2 (acceptor fluorophore) were made up separately by diluting each 1 in 20 in conjugate and lysis buffer provided in the kit. Anti-cAMP cryptate was added to all wells of the assay plate, followed by cAMP-d2 added to all wells except non-specific binding (NSB) wells (to which conjugate and lysis buffer was added).
Data was transformed to % Delta F as described in the manufacturer's guidelines and analyzed by 4-parameter logistic fit to determine EC50 values.

Where [3] appears, read: Table 6, modification at position 17, CHO cells expressing hGLP-1R.
Where [4] appears, read: Table 6, modification at position 17, CHO cells expressing hGCGR, geometric mean.
Setting [5] is: Table 10, peptides modified at position 13, CHO cells.
[6] abbreviates: Table 10, peptides modified at position 13, geometric mean, CHO cells.
Setting [7] is: Table 9, peptides modified at position 10, geometric mean, CHO cells.

Molecules are shown by their SMILES. Read-outs that look alike come from different tables or passages of the source. Starred links: 1 amine or outer side, 2 acyl side, 3 side chain; linkers in the order of their positions; H or OH if unused. Non-standard residues stand in square brackets, D forms with d. Residues, ends and D or L forms follow the SMILES beside them. Groups on a side chain read outwards from the residue. *: point of attachment. C20 diacid = O=C(O)CCCCCCCCCCCCCCCCCCC(=O)*; C18 diacid = O=C(O)CCCCCCCCCCCCCCCCC(=O)*; Dip = N[C@H](C(=O)O)C(c1ccccc1)c1ccccc1; γGlu = O=C(O)[C@H](CCC(=O)[*:2])N[*:1]; Stearoyl = CCCCCCCCCCCCCCCCCC(=O)*; Palmitoyl = CCCCCCCCCCCCCCCC(=O)*; αMeF = C[C@](N)(Cc1ccccc1)C(=O)O; PEG2 = NCCOCCOCCC(=O)O; AEEA = NCCOCCOCC(=O)O; Aib = CC(C)(N)C(=O)O

T1 sequence (P43220 24-463): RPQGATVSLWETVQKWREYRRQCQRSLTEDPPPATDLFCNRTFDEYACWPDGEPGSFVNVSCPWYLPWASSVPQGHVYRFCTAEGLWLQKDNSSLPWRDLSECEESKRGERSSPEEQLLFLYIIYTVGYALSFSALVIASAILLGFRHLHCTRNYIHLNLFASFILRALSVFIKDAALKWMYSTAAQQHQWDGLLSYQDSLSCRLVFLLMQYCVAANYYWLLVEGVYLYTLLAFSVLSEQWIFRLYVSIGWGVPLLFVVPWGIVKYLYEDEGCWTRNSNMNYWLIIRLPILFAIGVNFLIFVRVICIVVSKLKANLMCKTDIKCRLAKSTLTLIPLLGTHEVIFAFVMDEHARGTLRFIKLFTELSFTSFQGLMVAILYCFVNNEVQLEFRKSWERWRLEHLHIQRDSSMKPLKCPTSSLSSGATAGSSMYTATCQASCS
T2 sequence (P47871 26-477): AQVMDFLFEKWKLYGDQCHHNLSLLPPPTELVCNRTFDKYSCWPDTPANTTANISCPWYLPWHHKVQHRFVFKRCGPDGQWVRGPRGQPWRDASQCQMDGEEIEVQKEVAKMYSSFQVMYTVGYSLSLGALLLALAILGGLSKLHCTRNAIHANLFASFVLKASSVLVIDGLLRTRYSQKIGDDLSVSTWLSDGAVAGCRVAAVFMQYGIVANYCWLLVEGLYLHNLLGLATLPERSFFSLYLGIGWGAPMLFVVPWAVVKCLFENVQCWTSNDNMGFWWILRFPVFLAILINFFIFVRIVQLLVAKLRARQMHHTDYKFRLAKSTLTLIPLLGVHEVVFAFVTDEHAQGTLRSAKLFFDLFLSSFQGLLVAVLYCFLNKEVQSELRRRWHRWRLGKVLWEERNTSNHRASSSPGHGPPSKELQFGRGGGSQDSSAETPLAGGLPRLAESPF

`CCCCCCCCCCCCCCCCCC(=O)N[C@@H](CCC(=O)N[C@@H](CCC(=O)NCCOCCOCCC(=O)NCCOCCOCCC(=O)NCCCC[C@H](NC(=O)[C@H](CO)NC(=O)[C@H](CC(=O)O)NC(=O)[C@H](CC(C)C)NC(=O)[C@@H](NC(=O)[C@H](CCCCN)NC(=O)[C@H](CO)NC(=O)[C@@H](NC(=O)[C@H](CC(=O)O)NC(=O)[C@H](CO)NC(=O)[C@@H](NC(=O)[C@](C)(Cc1ccccc1)NC(=O)[C@H](CO)NC(=O)CNC(=O)[C@H](CCC(N)=O)NC(=O)C(C)(C)NC(=O)[C@@H](N)Cc1c[nH]cn1)[C@@H](C)O)C(C)C)C(c1ccccc1)c1ccccc1)C(=O)N[C@@H](C)C(=O)N[C@@H](C)C(=O)N[C@@H](CCC(N)=O)C(=O)N[C@@H](CC(=O)O)C(=O)N[C@@](C)(Cc1ccccc1)C(=O)N[C@H](C(=O)N[C@@H](CCC(=O)O)C(=O)NC(C)(C)C(=O)N[C@@H](CC(C)C)C(=O)N[C@@H](CCC(=O)O)C(=O)N[C@@H](C)C(=O)NCC(=O)NCC(N)=O)C(C)C)C(=O)O)C(=O)O` [Peptide 44] (H-H[Aib]QGS[αMeF]TSDVSK[Dip]LDSK([PEG2-PEG2-γGlu-γGlu-Stearoyl])AAQD[αMeF]VE[Aib]LEAGG-NH2; N-terminus assumed): the figures for the EC50 in test [1] (setting [3]) and in test [2] (setting [4]) were 0.00212 nM and 0.0182 nM, respectively. Besides, in test [1] (Table 6), the “% Relative Potency Ratio” value is 17.0.

For the molecule `CCCCCCCCCCCCCCCCCC(=O)N[C@@H](CCC(=O)N[C@@H](CCC(=O)NCCOCCOCCC(=O)NCCOCCOCCC(=O)NCCCC[C@H](NC(=O)[C@H](CCCCN)NC(=O)[C@H](CO)NC(=O)[C@@H](NC(=O)[C@H](CC(=O)O)NC(=O)[C@H](CO)NC(=O)[C@@H](NC(=O)[C@](C)(Cc1ccccc1)NC(=O)[C@H](CO)NC(=O)CNC(=O)[C@H](CCC(N)=O)NC(=O)[C@H](CO)NC(=O)[C@@H](N)Cc1c[nH]cn1)[C@@H](C)O)C(C)C)C(=O)N[C@@H](CC(C)C)C(=O)N[C@@H](CC(=O)O)C(=O)N[C@@H](CO)C(=O)N[C@H](C(=O)N[C@@H](C)C(=O)N[C@@H](C)C(=O)N[C@@H](CCC(N)=O)C(=O)N[C@@H](CC(=O)O)C(=O)N[C@@](C)(Cc1ccccc1)C(=O)N[C@H](C(=O)N[C@@H](CCC(=O)O)C(=O)N[C@@H](Cc1c[nH]cn1)C(=O)N[C@@H](CC(C)C)C(=O)N[C@@H](C)C(=O)N[C@@H](CC(N)=O)C(=O)N[C@H](C(N)=O)[C@@H](C)O)C(C)C)C(C)(C)CCNC(=N)N)C(=O)O)C(=O)O` [Peptide 404, HSQGS(αMePhe)TSDVSKK((PEG)2-(PEG)2-γE-γE-Stearoyl)13LDS(ß-dimethylArg)AAQD(αMePhe)VEHLANT-amide], the figures for the EC50 in test [1] (setting [5]) and in test [2] (setting [6]) were 0.00565 nM and 0.0218 nM, respectively. For the same molecule, the “% Relative Potency Ratio” value in test [1] (Table 10) amounted to 7.6.

For the molecule `CC[C@H](C)[C@H](NC(=O)[C@@H](NC(=O)C(C)(C)NC(=O)[C@H](CCC(=O)O)NC(=O)[C@@H](NC(=O)[C@](C)(Cc1ccccc1)NC(=O)[C@H](CC(=O)O)NC(=O)[C@H](CCC(N)=O)NC(=O)[C@H](C)NC(=O)[C@H](C)NC(=O)[C@H](CCCCNC(=O)CCOCCOCCNC(=O)CCOCCOCCNC(=O)CC[C@H](NC(=O)CC[C@H](NC(=O)CCCCCCCCCCCCCCCCC(=O)O)C(=O)O)C(=O)O)NC(=O)[C@H](CO)NC(=O)[C@H](CC(=O)O)NC(=O)[C@H](CC(C)C)NC(=O)[C@@H](NC(=O)[C@H](CCCCN)NC(=O)[C@H](CO)NC(=O)[C@@H](NC(=O)[C@H](CC(=O)O)NC(=O)[C@H](CO)NC(=O)[C@@H](NC(=O)[C@](C)(Cc1ccccc1)NC(=O)[C@H](CO)NC(=O)CNC(=O)[C@H](CCC(N)=O)NC(=O)[C@H](CO)NC(=O)[C@@H](N)Cc1c[nH]cn1)[C@@H](C)O)C(C)C)C(c1ccccc1)c1ccccc1)C(C)C)[C@@H](C)CC)C(=O)N[C@@H](CC(N)=O)C(=O)N[C@H](C(N)=O)[C@@H](C)O` [Peptide 65] (H-HSQGS[αMeF]TSDVSK[Dip]LDSK([PEG2-PEG2-γGlu-γGlu-C18 diacid])AAQD[αMeF]VE[Aib]IINT-NH2), the EC50 in test [1] (setting [3]) is 1.23 nM; in test [2] (setting [4]) it was 2.06 nM. Moreover, in test [1] (Table 6), the “% Relative Potency Ratio” value came to 3.3.

For `CCCCCCCCCCCCCCCC(=O)N[C@@H](CCC(=O)NCCOCCOCCC(=O)NCCOCCOCCC(=O)NCCCC[C@H](NC(=O)[C@H](CC(=O)O)NC(=O)[C@H](CO)NC(=O)[C@@H](NC(=O)[C@](C)(Cc1ccccc1)NC(=O)[C@H](CO)NC(=O)CNC(=O)[C@H](CCC(N)=O)NC(=O)C(C)(C)NC(=O)[C@@H](N)Cc1c[nH]cn1)[C@@H](C)O)C(=O)N[C@@H](CO)C(=O)N[C@@H](CCCCN)C(=O)N[C@H](C(=O)N[C@@H](CC(C)C)C(=O)N[C@@H](CC(=O)O)C(=O)N[C@@H](CO)C(=O)N[C@@H](CCCNC(=N)N)C(=O)N[C@@H](C)C(=O)N[C@@H](C)C(=O)N[C@@H](CCC(N)=O)C(=O)N[C@@H](CC(=O)O)C(=O)N[C@@](C)(Cc1ccccc1)C(=O)N[C@H](C(=O)N[C@@H](CCC(=O)O)C(=O)N[C@@H](Cc1c[nH]c2ccccc12)C(=O)N[C@H](C(=O)N[C@@H](C)C(=O)N[C@@H](CC(N)=O)C(=O)N[C@H](C(N)=O)[C@@H](C)O)[C@@H](C)CC)C(C)C)[C@@H](C)CC)C(=O)O` [Peptide 396] (H-H[Aib]QGS[αMeF]TSDK([PEG2-PEG2-γGlu-Palmitoyl])SKILDSRAAQD[αMeF]VEWIANT-NH2), the “% Relative Potency Ratio” value in test [1] (Table 9) worked out at 40.2. Also, in test [2] (setting [7]), the EC50 stood at 0.0118 nM.

For `CC[C@H](C)[C@H](NC(=O)C(C)(C)NC(=O)[C@H](CCC(N)=O)NC(=O)[C@@H](NC(=O)[C@](C)(Cc1ccccc1)NC(=O)[C@H](CC(=O)O)NC(=O)[C@H](CCC(N)=O)NC(=O)[C@H](C)NC(=O)[C@H](C)NC(=O)[C@H](CCCNC(=N)N)NC(=O)[C@H](CO)NC(=O)[C@H](CC(=O)O)NC(=O)[C@H](CC(C)C)NC(=O)[C@](C)(Cc1ccccc1)NC(=O)[C@H](CCCCN)NC(=O)[C@H](CO)NC(=O)[C@H](CCCCNC(=O)COCCOCCNC(=O)COCCOCCNC(=O)CC[C@H](NC(=O)CCCCCCCCCCCCCCCCC(=O)O)C(=O)O)NC(=O)[C@H](CC(=O)O)NC(=O)[C@H](CO)NC(=O)[C@@H](NC(=O)[C@](C)(Cc1ccccc1)NC(=O)[C@H](CO)NC(=O)CNC(=O)[C@H](Cc1c[nH]cn1)NC(=O)C(C)(C)NC(=O)[C@@H](N)Cc1c[nH]cn1)[C@@H](C)O)C(C)C)C(=O)N[C@@H](C)C(=O)N[C@@H](CC(N)=O)C(=O)N[C@H](C(N)=O)[C@@H](C)O` [Peptide 392] (H-H[Aib]HGS[αMeF]TSDK([AEEA-AEEA-γGlu-C18 diacid])SK[αMeF]LDSRAAQD[αMeF]VQ[Aib]IANT-NH2), the EC50 in test [1] (Table 9, peptides modified at position 10, CHO cells) was found to be 0.312 nM; in test [2] (setting [7]), 6.92 nM. In test [1] (Table 9), the “% Relative Potency Ratio” value was 43.8.

With `CCCCCCCCCCCCCCCC(=O)N[C@@H](CCC(=O)NCCOCCOCCC(=O)NCCOCCOCCC(=O)NCCCC[C@H](NC(=O)[C@H](CCCCN)NC(=O)[C@H](CO)NC(=O)[C@@H](NC(=O)[C@H](CC(=O)O)NC(=O)[C@H](CO)NC(=O)[C@@H](NC(=O)[C@](C)(Cc1ccccc1)NC(=O)[C@H](CO)NC(=O)CNC(=O)[C@H](CCC(N)=O)NC(=O)C(C)(C)NC(=O)[C@@H](N)Cc1c[nH]cn1)[C@@H](C)O)C(C)C)C(=O)N[C@@H](CC(C)C)C(=O)N[C@@H](CC(=O)O)C(=O)N[C@@H](CO)C(=O)N[C@@H](CCCNC(=N)N)C(=O)N[C@@H](C)C(=O)N[C@@H](C)C(=O)N[C@@H](CCC(N)=O)C(=O)N[C@@H](CC(=O)O)C(=O)N[C@@](C)(Cc1ccccc1)C(=O)N[C@H](C(=O)N[C@@H](CCC(=O)O)C(=O)N[C@@H](Cc1c[nH]c2ccccc12)C(=O)N[C@H](C(=O)N[C@@H](C)C(=O)N[C@@H](CC(N)=O)C(=O)N[C@H](C(N)=O)[C@@H](C)O)[C@@H](C)CC)C(C)C)C(=O)O` [Peptide 401] (H-H[Aib]QGS[αMeF]TSDVSKK([PEG2-PEG2-γGlu-Palmitoyl])LDSRAAQD[αMeF]VEWIANT-NH2), in test [1] (Table 10), the “% Relative Potency Ratio” value is 32.3. In test [2] (setting [6]), the EC50 is 0.00954 nM.

With `CC[C@H](C)[C@H](NC(=O)C(C)(C)NC(=O)[C@H](CCC(N)=O)NC(=O)[C@@H](NC(=O)[C@](C)(Cc1ccccc1)NC(=O)[C@H](CC(=O)O)NC(=O)[C@H](CCC(N)=O)NC(=O)[C@H](C)NC(=O)[C@H](C)NC(=O)[C@H](CCCNC(=N)N)NC(=O)[C@H](CO)NC(=O)[C@H](CC(=O)O)NC(=O)[C@H](CC(C)C)NC(=O)[C@H](CCCCNC(=O)COCCOCCNC(=O)COCCOCCNC(=O)CC[C@H](NC(=O)CC[C@H](NC(=O)CCCCCCCCCCCCCCCCCCC(=O)O)C(=O)O)C(=O)O)NC(=O)[C@H](CCCCN)NC(=O)[C@H](CO)NC(=O)[C@@H](NC(=O)[C@H](CC(=O)O)NC(=O)[C@H](CO)NC(=O)[C@@H](NC(=O)[C@](C)(Cc1ccccc1)NC(=O)[C@H](CO)NC(=O)CNC(=O)[C@H](Cc1c[nH]cn1)NC(=O)C(C)(C)NC(=O)[C@@H](N)Cc1c[nH]cn1)[C@@H](C)O)C(C)C)C(C)C)C(=O)N[C@@H](C)C(=O)N[C@@H](CC(N)=O)C(=O)N[C@H](C(N)=O)[C@@H](C)O` [Peptide 405] (H-H[Aib]HGS[αMeF]TSDVSKK([AEEA-AEEA-γGlu-γGlu-C20 diacid])LDSRAAQD[αMeF]VQ[Aib]IANT-NH2), the EC50 in test [1] (setting [5]) was 1.04 nM; in test [2] (setting [6]), 8.59 nM. For the same molecule, in test [1] (Table 10), the “% Relative Potency Ratio” value came out at 16.3.
